These results are taken from paper PMC12251305 (Molecules, 2025).

Series [1] deals with T1, hNPFF1-R (Homo sapiens, UniProt Q9GZQ6).
T1 construct: expressed in transfected cells; host or cells: CHO cells
As to the kind of experiment: Radioligand competition binding at NPFF1-R. Conditions: read-out: Receptor Binding, Ki ± SEM NPFF1-R.

For series [2], the target named is T2, MOR (Homo sapiens, UniProt P35372). The experiment in a line: Radioligand competition binding at MOR.
Series [3] can be described thus: Metabolic stability in rat liver microsomes. The format is in vitro ADME. The procedure: In vitro metabolism of 22b (1 µM) was studied using Sprague Dawley rat liver microsomes (RLM) in a bench-top shaker for 1 h at 37 ± 0.5 °C. An aliquot (2 μL) of the stock solution (250 µM) was spiked in 0.5 mL of pre-incubated metabolic reaction mixture [50 mM Tris buffer (pH 7.4), 0.5 mg protein/mL of RLM, 20 mM magnesium chloride, and 2 mM NADPH]. Verapamil was used as the positive control to ensure the activity of the liver microsomal enzymes, and a metabolic reaction mixture without NADPH was used as the negative control in the same incubation conditions. An aliquot (40 µL) of the reaction mixture was withdrawn at 0, 5, 10, 15, 30, 45, and 60 min and quenched with 200 µL of ice-cold methanol. Samples were vortex-mixed for 2 min, followed by filtration (Multiscreen, Merck Millipore, Ireland) under vacuum. The filtrate was injected onto a UPLC-MS/MS system.
The hepatic elimination rate constant (k) was calculated directly from the slope of the natural logarithm (percent drug remaining) of the concentration vs. the time profile. In vitro half-life (t1/2), intrinsic clearance (CLint), and hepatic clearance (CLint,h) can be calculated from the equations reported in Figure S3 of the Supporting Information, where [V] is the incubation volume in mL and [P] is the amount of microsomal protein in the incubation mixture.

In series [4] the target is T2, MOR. The experiment in a line: [35S]GTPγS functional assay (agonist mode) at MOR. The format is biochemical. Conditions: [35S]GTPγS MOR EC50 ± SEM.
Series [5] has as its system C57BL/6J mice. The experiment in a line: Excreta assay (intestinal transit). Conditions: 90 min.
The target in series [6] is T3, KOR (Homo sapiens, UniProt P41145). The experiment in a line: biochemical. The format is binding.
T3 sequence (P41145 whole entry): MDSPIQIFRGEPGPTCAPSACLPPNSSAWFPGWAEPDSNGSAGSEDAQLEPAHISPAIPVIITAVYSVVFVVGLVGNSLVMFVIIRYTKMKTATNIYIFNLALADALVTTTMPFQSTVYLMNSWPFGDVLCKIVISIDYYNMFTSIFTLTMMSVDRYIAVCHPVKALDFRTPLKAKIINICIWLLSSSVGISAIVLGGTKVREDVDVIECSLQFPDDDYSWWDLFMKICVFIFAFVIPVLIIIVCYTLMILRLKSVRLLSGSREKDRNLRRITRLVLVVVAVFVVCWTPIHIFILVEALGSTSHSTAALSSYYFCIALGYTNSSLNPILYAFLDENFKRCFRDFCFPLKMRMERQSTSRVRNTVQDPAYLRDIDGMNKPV
In series [7] the target is T3, KOR. As to the kind of experiment: [35S]GTPγS functional assay (agonist mode) at KOR. It is filed as biochemical. Conditions: [35S]GTPγS KOR EC50 ± SEM, agonist mode, standard U-69,593.
Series [8] relates to C57BL/6J mice. As to the kind of experiment: Antinociception assay (55 °C warm water tail withdrawal assay). It is filed as in vivo, mouse.
The subject of series [9] is C57BL/6J mice. The experiment in a line: Anti-hyperalgesia assay (48 °C warm water tail withdrawal assay, NPFF-induced hyperalgesia). It is filed as in vivo, mouse.
The subject of series [10] is C57BL/6J mice. The experiment in a line: Locomotor testing (CLAMS). It is filed as in vivo, mouse. Conditions: 100 nmol i.c.v., 90 min.
Series [11] has as its system C57BL/6J mice. As to the kind of experiment: Acute antinociceptive tolerance assay (55 °C warm water tail withdrawal). Conditions: i.c.v. It is filed as in vivo, mouse.
The target of series [12] is T4, DOR (Homo sapiens, UniProt P41143). As to the kind of experiment: [35S]GTPγS functional assay (agonist mode) at DOR. It is filed as biochemical. Conditions: [35S]GTPγS DOR EC50 ± SEM, agonist mode, standard DPDPE.
T4 sequence (P41143 whole entry): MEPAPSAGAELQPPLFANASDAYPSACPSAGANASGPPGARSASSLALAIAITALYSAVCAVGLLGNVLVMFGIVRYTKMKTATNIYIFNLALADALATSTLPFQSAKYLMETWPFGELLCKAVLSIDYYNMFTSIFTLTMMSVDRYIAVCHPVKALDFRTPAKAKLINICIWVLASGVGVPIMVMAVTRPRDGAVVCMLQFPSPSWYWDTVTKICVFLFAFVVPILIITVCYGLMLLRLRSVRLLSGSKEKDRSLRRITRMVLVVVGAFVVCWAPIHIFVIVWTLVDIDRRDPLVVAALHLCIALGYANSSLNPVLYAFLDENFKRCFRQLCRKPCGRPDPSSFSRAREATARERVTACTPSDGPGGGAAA
The target of series [13] is T4, DOR. As to the kind of experiment: Radioligand competition binding at DOR. Conditions: read-out: Receptor Binding, Ki ± SEM DOR.
Series [14] has as its target T5, hNPFF2-R (Homo sapiens, UniProt Q9Y5X5).
T5 construct: expressed in transfected cells; host or cells: CHO cells (membranes)
As to the kind of experiment: Radioligand competition binding at NPFF2-R. Conditions: [3H]EYF, transfected CHO cell membranes; read-out: Receptor Binding, Ki ± SEM NPFF2-R.

Series [15] can be described thus: In vivo pharmacokinetic study, intravenous. On the set-up: species or system Sprague Dawley rats. Conditions: 5 mg/kg i.v., rat, mean (n = 6) ± SEM. As to the method: In vivo pharmacokinetic study. For the evaluation of the in vivo pharmacokinetic parameters of 22b, a pharmacokinetic study was performed in healthy male adult Sprague Dawley rats with in-dwelling jugular catheters weighing 225 ± 25 g. The animals were housed in single occupancy metabolic cages with mesh flooring and urine and feces receptacles. Six animals were dosed with 5 mg/kg intravenously, and the blood samples were collected at the following time points: pre-dose, 0.083, 0.17, 0.33, 0.50, 0.75, 1, 2, 4, 6, 8, and 10 h post-dose. All samples were stored at −80 °C until they were further analyzed. Collected plasma samples were analyzed using a validated UPLC-MS/MS method, and non-compartmental analysis of the plasma concentration data was performed using Phoenix® 6.4.
Bioanalytical method development and validation. A sensitive, accurate, and robust quantitative liquid chromatography tandem mass spectrometry (LC-MS/MS, Waters Corporation, Milford, MA, USA) method was developed and validated according to the FDA guidelines. Separation was achieved using a Waters Acquity I-Class liquid chromatography system equipped with a binary pump, a degasser, a temperature-controlled autosampler, and a column oven. The analyte was separated via gradient elution utilizing LC-MS grade water and methanol acidified with 0.02% trifluoroacetic acid (TFA, % v/v) through a 2.1 × 50 mm ACQUITY UPLC® CSH C18 column with 1.7 μm particle size (PN 186005296, SN 01463729915172). Mass detection was achieved via Waters Xevo TQS Micro triple quadrupole mass spectrometer in positive electrospray ionization (ESI^+) mode with the multiple reaction monitoring (MRM) function. The method was validated in rat plasma for the linearity range of 1–200 ng/mL. The gradient schematic and fragmentation monitoring parameters are reported in Tables S2 and S3 of the Supporting Information.

The test system of series [16] is C57BL/6J mice. The experiment in a line: Respiration testing (CLAMS). The format is in vivo, mouse. Conditions: 90 min.
A further series has as its target NPFF1-R. Conditions: read-out: NPFF1-R Ki; Figure 1; ref [29]; cited from earlier work.
For series [17], the target named is T1, hNPFF1-R. Conditions: inhibition of cAMP production induced by 2 μM forskolin; ref (46); read-out: Functional Activity hNPFF1-R EC50; cited from earlier work.
Series [18] has as its target T5, hNPFF2-R. On the set-up: method as in earlier work. Conditions: inhibition of cAMP production induced by 2 μM forskolin; ref (46); read-out: Functional Activity hNPFF2-R EC50; cited from earlier work.
[19] abbreviates: male, Sprague Dawley, plasma, iv.

T5 sequence (Q9Y5X5 whole entry): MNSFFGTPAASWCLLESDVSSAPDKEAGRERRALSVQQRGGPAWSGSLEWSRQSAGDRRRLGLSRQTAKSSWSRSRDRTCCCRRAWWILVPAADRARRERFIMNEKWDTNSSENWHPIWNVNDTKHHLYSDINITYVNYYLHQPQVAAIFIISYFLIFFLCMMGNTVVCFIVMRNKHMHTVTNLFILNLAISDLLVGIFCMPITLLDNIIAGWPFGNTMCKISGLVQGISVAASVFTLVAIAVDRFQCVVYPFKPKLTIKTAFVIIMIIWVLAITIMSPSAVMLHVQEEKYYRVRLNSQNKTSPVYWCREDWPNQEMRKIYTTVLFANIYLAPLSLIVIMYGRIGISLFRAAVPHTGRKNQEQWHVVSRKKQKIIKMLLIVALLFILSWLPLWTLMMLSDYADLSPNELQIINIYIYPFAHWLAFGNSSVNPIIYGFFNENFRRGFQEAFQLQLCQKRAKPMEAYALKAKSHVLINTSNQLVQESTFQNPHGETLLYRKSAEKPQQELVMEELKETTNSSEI
T1 sequence (Q9GZQ6 whole entry): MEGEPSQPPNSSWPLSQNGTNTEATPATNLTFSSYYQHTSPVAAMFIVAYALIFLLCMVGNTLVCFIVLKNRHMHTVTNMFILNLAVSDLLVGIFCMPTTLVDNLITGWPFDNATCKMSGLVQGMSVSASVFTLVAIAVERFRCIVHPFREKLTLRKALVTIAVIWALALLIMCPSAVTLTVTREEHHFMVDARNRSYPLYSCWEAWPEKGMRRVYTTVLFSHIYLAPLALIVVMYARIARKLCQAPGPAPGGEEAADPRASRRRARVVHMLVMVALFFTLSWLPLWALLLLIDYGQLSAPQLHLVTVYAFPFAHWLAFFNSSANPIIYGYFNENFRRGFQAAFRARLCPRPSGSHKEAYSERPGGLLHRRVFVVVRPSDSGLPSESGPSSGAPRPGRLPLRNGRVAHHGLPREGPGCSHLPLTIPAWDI
T2 sequence (P35372 whole entry): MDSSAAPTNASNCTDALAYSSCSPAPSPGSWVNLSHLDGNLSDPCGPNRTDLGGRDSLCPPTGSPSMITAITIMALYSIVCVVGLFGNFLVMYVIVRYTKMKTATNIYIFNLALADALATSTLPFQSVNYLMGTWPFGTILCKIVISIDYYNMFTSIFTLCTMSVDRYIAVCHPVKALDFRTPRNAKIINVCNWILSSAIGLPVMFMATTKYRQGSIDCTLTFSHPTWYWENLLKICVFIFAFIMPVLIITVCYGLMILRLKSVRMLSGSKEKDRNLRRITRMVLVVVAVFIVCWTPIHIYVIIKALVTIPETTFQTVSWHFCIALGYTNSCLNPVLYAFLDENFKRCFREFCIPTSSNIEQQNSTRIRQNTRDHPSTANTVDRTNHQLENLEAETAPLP

As for `N=C(N)Nc1ccc(C(=C2CCN(Cc3ccccc3)CC2)c2ccccc2)cc1` [Compound 22b, 1-(4-((1-Benzylpiperidin-4-ylidene)(phenyl)methyl)phenyl)guanidine], the Ki at hNPFF1-R [1] is 929 ± 183 nM; at MOR [2], 428 ± 33 nM; at KOR [6], 270 ± 43 nM; on DOR [13], 11.4 ± 4.3 nM; on hNPFF2-R [14], 272 ± 1 nM. Besides, the “compound remained unchanged after 1 h of incubation” value in series [3] (1 µM, RLM, with NADPH) turned out to be 25.5%. Also, in series [3] (RLM without NADPH), the “stability in negative control reaction mixture” value is given as “metabolism of the compound was also observed”. The half-life at 1 µM in series [3] (Sprague Dawley, rat, liver microsomes, pH 7.4, 1 µM, RLM, read-out: in vitro half-life) amounted to 0.517 ± 0.0133 h. In [3] (pooled rat liver microsomes), the “intrinsic clearance (CLint)” value is listed as 0.045 ± 0.001 mL/min per milligram of microsomal protein. In addition, the EC50 at MOR [4] was 576 ± 311 nM; at KOR [7], 2710 ± 398 nM; at DOR [12], 539 ± 93.2 nM. In addition, the “number of excreted fecal boli” value in the series with C57BL/6J mice [5] (30 nmol i.c.v.) was determined as 3.5 ± 0.7 boli; in the series with C57BL/6J mice [5] (100 nmol i.c.v.), 4.1 ± 0.6 boli. In addition, the “antinociceptive activity over time (screening)” value with C57BL/6J mice [8] (30 nmol i.c.v., 55 °C) was “induced the greatest tail withdrawal latencies”. Besides, in the series on C57BL/6J mice [8] (22b 30 nmol i.c.v., naltrindole 20 mg/kg i.p. 20 min before, 40 min), the “antinociceptive response after pretreatment with DOR-selective antagonist naltrindole” value is on record as “did not alter the antinociceptive response”. The “antinociceptive response after pretreatment with KOR-selective antagonist nor-BNI” value in the series on C57BL/6J mice [8] (22b 30 nmol i.c.v., nor-BNI 10 mg/kg i.p. 24 h before, 40 min) is recorded as “did not alter the antinociceptive response”. Further, the “antinociceptive activity after pretreatment with MOR-selective antagonist β-FNA” value in the series with C57BL/6J mice [8] (22b 30 nmol i.c.v., β-FNA 5 mg/kg s.c. 24 h before, 40 min) was “almost completely abolished”. The ED50 with C57BL/6J mice [8] (Mus musculus, ip, 10 min, i.p., 10 min after administration, 55 °C, read-out: antinociception ED50 (95% confidence interval)) worked out at 3.61 mg/kg. In addition, the “antinociception ED50 (95% confidence interval)” value with C57BL/6J mice [8] (i.c.v., 40 min after administration, 55 °C) is recorded as 6.88 (4.71–9.47) nmol. In the series on C57BL/6J mice [8] (i.p. administration), the “duration of antinociceptive effect” value is on record as “no more than 50 min”. For the same compound, the “prevention of NPFF-induced hyperalgesia (screening)” value in the series with C57BL/6J mice [9] (30 nmol i.c.v. two hours before NPFF 30 nmol i.c.v.) is “more moderate, yet still statistically significant, effect”. The “prevention of NPFF-induced hyperalgesia after peripheral pretreatment” value in the series with C57BL/6J mice [9] (10 mg/kg i.p. pretreatment, NPFF 30 nmol i.c.v.) is “significant antagonism”. Also, the “effect on ambulation (spontaneous locomotor activity)” value in the series with C57BL/6J mice [10] is recorded as “not significantly greater than that of the vehicle”. Moreover, the “antinociception ED50 (95% CI), second administration” value with C57BL/6J mice [11] (given 8 h after a first dose (morphine 3 nmol, 22b 8.7 nmol), 55 °C) is recorded as 10.8 (5.89–21.1) nmol. The “rightward shift of antinociceptive dose response (acute tolerance)” value with C57BL/6J mice [11] (second administration 8 h after first) is 1.6 fold. For the same compound, in series [15], the AUC/dose0_inf came out at 3004.7 ± 108.1 ng·h/mL/mg. The compound further displayed a C0 in series [15] (setting [19]) of 9150 ± 3740 ng/mL. The compound further came in with a Vd in series [15] (setting [19]) of 2 ± 0.2 L. This compound had a clearance in [15] (setting [19]) of 5 mL/min. Also, the half-life in series [15] (setting [19]) is 4.1 ± 0.5 h. In series [15] (male, Sprague Dawley, plasma, iv, read-out: k (elimination rate constant) (converted)), the k el was 5.56e-05 s⁻¹. The “effect on respiration rate” value with C57BL/6J mice [16] (30 nmol i.c.v.) was “no marked reduction in respiration”; with C57BL/6J mice [16] (100 nmol i.c.v.), “increased respiration rate”.

On to `N=C(N)NCCNC(=O)C1(Nc2ccccc2)CCN(Cc2ccccc2)CC1` [compound 2], for which the Ki on NPFF1-R is 81 ± 17 nM.

In the case of “1DMe: high-affinity peptidic NPFF receptor ligand (YLFQPQRF)”, the EC50 is 71 ± 14 nM with hNPFF1-R [17] and 2.7 ± 0.5 nM with hNPFF2-R [18].
